Data from US7179821B2, “Method of treating of demyelinating diseases or conditions” (Aventis Pharmaceuticals Inc., priority 2001, dated 2007).
Where “and” joins values, the source holds several entries; their conditions need not be identical. Equal values may be shown once. Marks after values point to notes of the source that are not given here.

Legend:
[1] = system: long-standing (25 days) spinal cord injury of minor intensity; assay: Chronic crush experiment, 25-day old mild compression injury (1.6 mm), OFT score; assay type: in vivo, rat; conditions: for OFT score 3 hours after last dose (Day 28, mild) / OFT score 3 hours after last dose: three consecutive daily doses; for OFT score prior to dose (Day 25, mild): group 3 mg/kg po; for OFT score prior to dose (Day 25, mild) / OFT score prior to dose: baseline before dosing
Source text: Normal spinal cord diameter is approximately 2.5 mm. This compression represents a moderate injury characterized by initial open field walking scores of 1.5–2.5 in the Open Field Walking Scale. […] The spinal cords of female rats were exposed to laminectomy or crush to a diameter of 1.6 mm. This represented a minor injury, and was designed to result in OFT scores of 4.0 after 25 days of no treatment. […] In this experiment, OFT scores were slightly higher (4.3–4.5), leaving only a small window for improvement. […] Consistent improvement was also observed after once a day ip 0.6 mg/kg 4-AP as well. The statistical differences were based upon the changes for each individual rat (each rat was its own control) using Mann-Whitney U-test. All the behavioral tests on day1, day2 and day3 were performed at 3 hours after gavage. There was no drug given on day3 (first day started to give drug was day 0).

acute bladder irritation = assay: Bladder irritation in the rat (protamine sulfate/KCl model), continuous open cystometry; assay type: in vivo; conditions: intravenous, cumulative dose-response, urethane anesthetized rats, P=0.0019
Experimental: Fraser et al combined protamine sulfate treatment, thought to breakdown urothelial umbrella cell barrier function, and physiologic urine concentrations of KCl (500 mM). The effects of intravenous HP-184 were compared to vehicle alone (n=4/group) in a cumulative dose-response study in urethane anesthetized rats with acute bladder irritation. Continuous open cystometry, which measures the filling and emptying of the bladder during continuous infusion, was utilized to determine the effect of the drug on bladder irritation. When the bladder is irritated, it contracts more frequently during the same filling rate due to sensitization of C-fiber afferent nerves. FIG. 8 illustrates the dose-dependent decrease in bladder contraction frequency from pre-administration irritation values compared to the effects of vehicle alone.

mouse pMCAO stroke model = assay: Mouse pMCAO stroke model, infarct volume; assay type: in vivo; conditions: −60 min (one hour prior to occlusion), infarct volume 24 hours later, vs vehicle treated mice
Experimental: Methods: The experimental procedure was based on the method of Bachauβ et al (1992). Male CD-1 mice weighing 35–40 g were anaesthetized with chloral hydrate (400 mg/kg). Under an operating microscope, a 3 mm vertical skin incision was made 2 mm behind the right orbit. The temporal muscle was deflected and a small craniotomy carried out to expose the dura. The dura was incised and deflected and the distal part of the right […] exposed. The artery was occluded upstream to the main bifurcation by bipolar electroagulation with fine forceps. Infarct volume was measured 24 hours later using 2% triphenyltetrazolium chloride solution. In this experimental paradigm, HP 184 was orally administered to non-fasted mice (10 per group) one hour prior to occlusion. Infarct volume reduction was based on comparison to 1% acetic acid, vehicle, treated mice.

NO production = assay: LPS-induced NO production in mice, plasma nitrate by Griess assay; assay type: in vivo, mouse; conditions: 30 mg/kg ip 30 minutes prior to LPS 3 mg/kg ip, plasma 5 hours after LPS
Experimental: Mice were injected with 30 mg/kg HP 184 (ip) 30 minutes prior to LPS (3 mg/kg, ip). Mice were sacrificed 5 hours after LPS injection, and plasma collected. Nitrate levels were determined by the Griess assay. Groups were composed of 9–10 mice each.

[2] = system: voltage-dependent K+ channels; assay: Potassium channel currents in PC12 cells, patch clamp; assay type: cell-based; conditions: 10 μM, 200 msec clamp pulses to +40 mV from −80 mV, n=4
Experimental: PC12 cells (ATCC, Rockville, Md.) were grown in Dulbecco's modified Eagle's media supplemented with 10% fetal bovine serum (GIBCO BRL Grand Island, N.Y.). Potassium channel currents were measured using standard patch clamp electrophysiolgy protocols as detailed previously (Rampe et al., 1998).
Potassium channel currents were elicited by 200 msec clamp pulses to +40 mV from a holding potential of −80 mV. […] Application of HP184 (10 μM) reduced the amplitude of this current and enhanced the rate of current decay. When current was measured at the end of the pulse, HP184 reduced current amplitude by 75±4% (n=4). The results are consisent with the notion that HP184 acts as an antagonist of voltage-dependent K^+ channels by blocking an activated state.

[3] = system: moderate chronic (35 days post-injury) spinal cord crush; assay: Long standing moderate spinal cord crush (35 days), OFT score; assay type: in vivo, rat; conditions: 3 mg/kg po, thirty-five days after moderate injury, single dose then daily for 4 more days
[4] = system: spinal cord crush-induced motor impairments; assay: Acute treatment after moderate spinal cord crush (1.4 mm), Open Field Walking Scale; assay type: in vivo, rat

## CCCN(c1ccncc1F)n1cc(C)c2ccccc21 [HP184, N-(3-fluoro-4-pyridinyl)-N-propyl-3-methyl-1H-indole-1-amine]
[1]; 3 mg/kg po once a day, p=0.0027
  OFT improvement compared to vehicle control (Mann-Whitney U-test): significant improvement at 30 min to 6 h to day 1
[1]; 3 mg/kg po once a day
  OFT score 3 hours after last dose (Day 28, mild): 4.47 ± .035
[1]; 3 mg/kg po once a day, listed as HP
  OFT score 3 hours after last dose (Day 28, mild): 4.47 ± 0.04
[1]; 10 mg/kg po once a day, p=0.014
  OFT improvement compared to vehicle control (Mann-Whitney U-test): significant improvement at 30 min and 3 h to 12 h
[1]; 10 mg/kg po once a day
  OFT score 3 hours after last dose: 4.44 ± 0.03
[1]; 20 mg/kg po once a day, p=0.002
  OFT improvement compared to vehicle control (Mann-Whitney U-test): significant improvement at 3 h to day 3
[1]; 20 mg/kg po once a day
  OFT score 3 hours after last dose: 4.60 ± 0.02
[1]; 3 mpk po
  % possible improvement (highest score = 5), mild: 22.0%*
  Delta of OFT score, Day 25 to Day 28 (mild): .15
[1]
  OFT score prior to dose (Day 25, mild): 4.32 ± .016
[1]; listed as HP
  OFT score prior to dose (Day 25, mild): 4.32 ± 0.05
[1]; group 10 mg/kg po
  OFT score prior to dose: 4.36 ± 0.01
[1]; group 20 mg/kg po
  OFT score prior to dose: 4.54 ± 0.02
Acute bladder irritation
  bladder contraction frequency in irritated bladders, FIG. 8: significantly decreased bladder contraction frequency in irritated bladders in a dose-dependent fashion
Mouse pMCAO stroke model; 1 mg/kg po
  % infarct volume reduction mean sem: 21 ± 3%
Mouse pMCAO stroke model; 10 mg/kg po
  % infarct volume reduction mean sem: 40 ± 2.5 % and 32 ± 11 %
NO production
  NO production (plasma nitrate), FIG. 9: inhibits NO production
[2]
  reduction of current amplitude at the end of the pulse: 75±4%
[3]
  motor recovery, Open Field Walking Test: improves motor recovery after a single dose
[4]; 20 and 5 mg/kg ip within 15 minutes of crush, repeated days 2 and 3, FIG. 2
  rate and extent of improvement of OFT score: significantly different from vehicle treated rats
[4]; po 5–10 minutes prior to crush, then once a day days 2 and 3, vs vehicle treated group, FIG. 3
  rate and extent of improvement of OFT score: improved for all doses
